{
  "source": "patent US11582970B2",
  "about": "“2-aminoimidazole-phenyl derivatives useful for controlling microbial growth” (NORTH CAROLINA STATE UNIVERSITY, priority 2017, dated 2023)",
  "assay_type_in_all_cases": "cell-based",
  "key": {"[1]": {"tested_on": "A. baumannii AB5075", "test": "MIC of carbapenems in presence and absence of 2-aminoimidazole compounds", "settings": "Acinetobacter baumannii, no 2-AI compound (None), read-out: MIC of meropenem", "text": "(§1) The minimal inhibitory concentration (MIC) values of imipenem (I); meropenem (M) and doripenem (D) in the presence and absence of 2-aminoimidazole compounds are provided in Table 1. The concentration of each compound used in μM in the MIC assay is shown in parentheses."}, "[2]": {"tested_on": "A. baumannii ATCC BAA-1605", "test": "MIC of carbapenems in presence and absence of 2-aminoimidazole compounds", "settings": "Acinetobacter baumannii, no 2-AI compound (None), read-out: MIC of meropenem", "text": "as §1"}, "[3]": {"tested_on": "K. pneumoniae ATCC BAA-1705", "test": "MIC of carbapenems in presence and absence of 2-aminoimidazole compounds", "settings": "Klebsiella pneumoniae, no 2-AI compound (None), read-out: MIC of meropenem", "text": "as §1"}, "[4]": {"tested_on": "K. pneumoniae ATCC BAA-2146", "test": "MIC of carbapenems in presence and absence of 2-aminoimidazole compounds", "settings": "Klebsiella pneumoniae, no 2-AI compound (None), read-out: MIC of meropenem", "text": "as §1"}, "[5]": {"tested_on": "A. baumannii (Ab) AR# 33", "test": "MIC of meropenem in combination with compound, CDC carbapenem resistant strain", "settings": "Acinetobacter baumannii, no compound (None), read-out: Minimum Inhibitory Concentration of Meropenem", "method": "(§2) EXAMPLE 2: Six compounds were assessed for their activity in combination with meropenem against carbapenem resistant strains of A. baumannii (Ab), K. pneumoniae (Kp), and E. coli acquired from the Center for Disease Control (CDC). AR #—assigned AR-BANK number from the CDC."}, "[6]": {"tested_on": "A. baumannii (Ab) AR# 35", "test": "MIC of meropenem in combination with compound, CDC carbapenem resistant strain", "settings": "Acinetobacter baumannii, no compound (None), read-out: Minimum Inhibitory Concentration of Meropenem", "method": "as §2"}, "[7]": {"tested_on": "A. baumannii (Ab) AR# 36", "test": "MIC of meropenem in combination with compound, CDC carbapenem resistant strain", "settings": "Acinetobacter baumannii, no compound (None), read-out: Minimum Inhibitory Concentration of Meropenem", "method": "as §2"}, "[8]": {"tested_on": "A. baumannii (Ab) AR# 37", "test": "MIC of meropenem in combination with compound, CDC carbapenem resistant strain", "settings": "Acinetobacter baumannii, no compound (None), read-out: Minimum Inhibitory Concentration of Meropenem", "method": "as §2"}, "[9]": {"tested_on": "A. baumannii (Ab) AR# 45", "test": "MIC of meropenem in combination with compound, CDC carbapenem resistant strain", "settings": "Acinetobacter baumannii, no compound (None), read-out: Minimum Inhibitory Concentration of Meropenem", "method": "as §2"}, "[10]": {"tested_on": "A. baumannii (Ab) AR# 52", "test": "MIC of meropenem in combination with compound, CDC carbapenem resistant strain", "settings": "Acinetobacter baumannii, no compound (None), read-out: Minimum Inhibitory Concentration of Meropenem", "method": "as §2"}, "[11]": {"tested_on": "A. baumannii (Ab) AR# 56", "test": "MIC of meropenem in combination with compound, CDC carbapenem resistant strain", "settings": "Acinetobacter baumannii, no compound (None), read-out: Minimum Inhibitory Concentration of Meropenem", "method": "as §2"}, "[12]": {"tested_on": "A. baumannii (Ab) AR# 63", "test": "MIC of meropenem in combination with compound, CDC carbapenem resistant strain", "settings": "Acinetobacter baumannii, no compound (None), read-out: Minimum Inhibitory Concentration of Meropenem", "method": "as §2"}, "[13]": {"tested_on": "A. baumannii (Ab) AR# 70", "test": "MIC of meropenem in combination with compound, CDC carbapenem resistant strain", "settings": "Acinetobacter baumannii, no compound (None), read-out: Minimum Inhibitory Concentration of Meropenem", "method": "as §2"}, "[14]": {"tested_on": "A. baumannii (Ab) AR# 83", "test": "MIC of meropenem in combination with compound, CDC carbapenem resistant strain", "settings": "Acinetobacter baumannii, no compound (None), read-out: Minimum Inhibitory Concentration of Meropenem", "method": "as §2"}, "[15]": {"tested_on": "A. baumannii (Ab) AR# 88", "test": "MIC of meropenem in combination with compound, CDC carbapenem resistant strain", "settings": "Acinetobacter baumannii, no compound (None), read-out: Minimum Inhibitory Concentration of Meropenem", "method": "as §2"}, "[16]": {"tested_on": "E. coli AR# 48", "test": "MIC of meropenem in combination with compound, CDC carbapenem resistant strain", "settings": "Escherichia coli, no compound (None), read-out: Minimum Inhibitory Concentration of Meropenem", "method": "as §2"}, "[17]": {"tested_on": "E. coli AR# 55", "test": "MIC of meropenem in combination with compound, CDC carbapenem resistant strain", "settings": "Escherichia coli, no compound (None), read-out: Minimum Inhibitory Concentration of Meropenem", "method": "as §2"}, "[18]": {"tested_on": "K. pneumoniae (Kp) AR# 40", "test": "MIC of meropenem in combination with compound, CDC carbapenem resistant strain", "settings": "Klebsiella pneumoniae, no compound (None), read-out: Minimum Inhibitory Concentration of Meropenem", "method": "as §2"}, "[19]": {"tested_on": "K. pneumoniae (Kp) AR# 41", "test": "MIC of meropenem in combination with compound, CDC carbapenem resistant strain", "settings": "Klebsiella pneumoniae, no compound (None), read-out: Minimum Inhibitory Concentration of Meropenem", "method": "as §2"}, "[20]": {"tested_on": "K. pneumoniae (Kp) AR# 68", "test": "MIC of meropenem in combination with compound, CDC carbapenem resistant strain", "settings": "Klebsiella pneumoniae, no compound (None), read-out: Minimum Inhibitory Concentration of Meropenem", "method": "as §2"}, "[21]": {"tested_on": "K. pneumoniae (Kp) AR# 98", "test": "MIC of meropenem in combination with compound, CDC carbapenem resistant strain", "settings": "Klebsiella pneumoniae, no compound (None), read-out: Minimum Inhibitory Concentration of Meropenem", "method": "as §2"}},
  "data": [
    {"smiles": "C[C@@H](O)[C@H]1C(=O)N2C(C(=O)O)=C(S[C@@H]3CN[C@H](C(=O)N(C)C)C3)[C@H](C)[C@H]12", "note": "[M, meropenem, reference compound]", "values": [
      {"measurement": "MIC", "setting": "[1]", "value": 32, "unit": "µg/mL"},
      {"measurement": "MIC", "setting": "[2]", "value": 32, "unit": "µg/mL"},
      {"measurement": "MIC", "setting": "[3]", "value": 64, "unit": "µg/mL"},
      {"measurement": "MIC", "setting": "[4]", "value": 256, "unit": "µg/mL"},
      {"measurement": "MIC", "setting": "[5]", "value": 128, "unit": "µg/mL"},
      {"measurement": "MIC", "setting": "[6]", "value": 128, "unit": "µg/mL"},
      {"measurement": "MIC", "setting": "[7]", "value": 128, "unit": "µg/mL"},
      {"measurement": "MIC", "setting": "[8]", "value": 256, "unit": "µg/mL"},
      {"measurement": "MIC", "setting": "[9]", "value": 16, "unit": "µg/mL"},
      {"measurement": "MIC", "setting": "[10]", "value": 8, "unit": "µg/mL"},
      {"measurement": "MIC", "setting": "[11]", "value": 32, "unit": "µg/mL"},
      {"measurement": "MIC", "setting": "[12]", "value": 128, "unit": "µg/mL"},
      {"measurement": "MIC", "setting": "[13]", "value": 8, "unit": "µg/mL"},
      {"measurement": "MIC", "setting": "[14]", "value": 256, "unit": "µg/mL"},
      {"measurement": "MIC", "setting": "[15]", "value": 512, "unit": "µg/mL"},
      {"measurement": "MIC", "setting": "[16]", "value": 256, "unit": "µg/mL"},
      {"measurement": "MIC", "setting": "[17]", "value": 256, "unit": "µg/mL"},
      {"measurement": "MIC", "setting": "[18]", "value": 1020, "unit": "µg/mL"},
      {"measurement": "MIC", "setting": "[19]", "value": 64, "unit": "µg/mL"},
      {"measurement": "MIC", "setting": "[20]", "value": 512, "unit": "µg/mL"},
      {"measurement": "MIC", "setting": "[21]", "value": 128, "unit": "µg/mL"}
    ]}
  ]
}
